≈ marks a conversion by molar mass, not a printed value.
What was measured:
[1] = Solubility of the compound in water at 500 ug/mL by HPLC method; format: physicochemical
[2] = Cytotoxicity against human MDA231 cells assessed as growth inhibition up to 20 uM after 48 hrs by MTT assay; format: cell-based, MDA-MB-231; conditions: read-out: GI
[3] = target: T1, Enoyl-[acyl-carrier-protein] reductase [NADH] (Mycobacterium tuberculosis) (UniProt P9WGR1); assay: Inhibition of Mycobacterium tuberculosis InhA at 100 uM using trans-2-decenoyl-N-acetylcysteamine as substrate preincubated for 1 hr followed by substrate addition measured every 30 secs for 5 mins
T1 sequence (whole entry): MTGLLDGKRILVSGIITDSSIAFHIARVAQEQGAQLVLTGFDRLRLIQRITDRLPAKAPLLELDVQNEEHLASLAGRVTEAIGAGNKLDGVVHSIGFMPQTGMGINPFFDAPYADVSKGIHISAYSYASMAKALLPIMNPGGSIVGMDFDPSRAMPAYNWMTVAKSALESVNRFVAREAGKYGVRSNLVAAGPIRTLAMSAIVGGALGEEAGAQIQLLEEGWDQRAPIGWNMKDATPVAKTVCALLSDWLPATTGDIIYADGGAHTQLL

[4] = tested on: Mycobacterium tuberculosis; assay: Antitubercular activity against Mycobacterium tuberculosis H37Ra assessed as as inhibition of bacterial growth at 10 ug/ml up to 7 days; format: functional; conditions: 168 h, read-out: GI
[5] = Cytotoxicity against human LO2 cells assessed as growth inhibition up to 20 uM after 48 hrs by MTT assay; format: cell-based, L02; conditions: read-out: GI
[6] = tested on: Mycobacterium tuberculosis; assay: Antitubercular activity against Mycobacterium tuberculosis H37Ra up to 7 days; format: functional; conditions: 168 h
[7] = Cytotoxicity against human SKOV3 cells assessed as growth inhibition up to 20 uM after 48 hrs by MTT assay; format: cell-based, SK-OV-3; conditions: read-out: GI
[8] = target: T2, Enoyl-[acyl-carrier-protein] reductase [NADH] (Mycobacterium tuberculosis, UniProt P9WGR1); assay: Inhibition of Mycobacterium tuberculosis InhA using trans-2-decenoyl-N-acetylcysteamine as substrate preincubated for 1 hr followed by substrate addition measured every 30 secs for 5 mins
T2 sequence (P9WGR1 whole entry): T1 sequence (whole entry)

[9] = Effective permeability of the compound in PBS/EtOH at 50 ug/mL after 18 hrs by PAMPA-BBB assay
[10] = Solubility of the compound in water at 180 uM by HPLC method; format: physicochemical

Row | SMILES | solubility [1] | inhibition at 48 h [2] | inhibition [3] | inhibition of growth at 10 µg/mL [4] | inhibition at 48 h [5] | MIC90 [6] | inhibition at 48 h [7] | IC50 [8] | Papp at 18 h, 50 ug/mL [9] | solubility at 180 µM [10]
1 | CCCCNCc1cc(-c2ccccc2F)n2c1cnc1cc(Br)ccc12 | 6.74 µg/mL (≈ 15.8 µM) | 70.8% | 50.2% | ≥ 90% | 68.7% | 10 µg/mL (≈ 23.5 µM) | 66.3% |  |  | 
2 | Fc1ccccc1-c1cc(CNCc2c(F)cccc2Cl)c2cnc3ccccc3n12 | 20.8 µg/mL (≈ 48 µM) |  |  | ≥ 90% |  | > 50 µg/mL |  |  |  | 
3 | CCCNCc1cc(-c2ccccc2F)n2c1cnc1ccccc12 | 73.3 µg/mL (≈ 220 µM) |  | 5.21% | ≥ 90% |  | 10 to 50 µg/mL (≈ 30 to 150 µM) |  |  |  | 
4 | Fc1ccccc1-c1cc(CNCc2c(F)cccc2Cl)c2cnc3cc(Cl)ccc3n12 | < 2.5 µg/mL |  |  | ≥ 90% |  | > 50 µg/mL |  |  |  | 
5 | CCCCNCc1cc(-c2ccccc2F)n2c1cnc1cc(F)ccc12 | 8.61 µg/mL (≈ 23.6 µM) |  | 7.88% | ≥ 90% |  | 25 µg/mL (≈ 68.4 µM) |  |  |  | 
6 | COc1ccc(CCNCc2cc(-c3ccccc3F)n3c2cnc2ccccc23)cc1OC | 50.7 µg/mL (≈ 111 µM) |  | 6.28% | ≥ 90% |  | 10 to 50 µg/mL (≈ 22 to 110 µM) |  |  |  | 
7 | CCN(CC)Cc1cc(-c2ccccc2F)n2c1cnc1cc(Cl)ccc12 |  |  |  | ≥ 90% |  | 10 to 50 µg/mL (≈ 26.2 to 131 µM) |  |  |  | 
8 | Fc1ccc2c(c1)ncc1c(CNCc3ccccc3)cc(-c3ccccc3F)n12 | 4.9 µg/mL (≈ 12.3 µM) | -8.04% | 48.5% | ≥ 90% | 20.1% | 10 µg/mL (≈ 25 µM) | -7.09% |  |  | 
9 | CC(C)NCc1cc(-c2ccccc2F)n2c1cnc1cc(Cl)ccc12 | 33.2 µg/mL (≈ 90.1 µM) | 71.7% | 27.4% | ≥ 90% | 76.4% | 10 µg/mL (≈ 27.2 µM) | 76.4% |  |  | 
10 | Fc1ccccc1-c1cc(CNCc2ccccc2)c2cnc3cc(Br)ccc3n12 | < 2.5 µg/mL | 32.1% | 62% | ≥ 90% | 5.38% | 10 µg/mL (≈ 21.7 µM) | 13.3% | 54 µM |  | 
11 | Fc1ccccc1-c1cc(CNCCc2ccc(Br)cc2)c2cnc3cc(Cl)ccc3n12 | < 2.5 µg/mL | 70.5% | 64.9% | ≥ 90% | 40.1% | 5 µg/mL (≈ 9.83 µM) | 71.8% | 48 µM |  | 
12 | Fc1ccccc1-c1cc(CNCc2ccccc2)c2cnc3ccccc3n12 | 21.1 µg/mL (≈ 55.3 µM) |  | 22.1% | ≥ 90% |  | 10 to 50 µg/mL (≈ 26.2 to 131 µM) |  |  |  | 
13 | Fc1ccccc1-c1cc(CN2CCN(c3ccccc3C(F)(F)F)CC2)c2cnc3cc(Cl)ccc3n12 | < 2.5 µg/mL |  |  | ≥ 90% |  | > 50 µg/mL |  |  |  | 
14 | COc1ccc(CCNCc2cc(-c3ccccc3F)n3c2cnc2cc(Cl)ccc23)cc1OC |  | 76.4% | 40.4% | ≥ 90% | 53.5% | 5 µg/mL (≈ 10.2 µM) | 84.4% |  | 9.39 ×10⁻⁶ cm/s | 90 µg/mL (≈ 184 µM)
15 | CCN(Cc1ccccc1)Cc1cc(-c2ccccc2F)n2c1cnc1cc(Cl)ccc12 | < 2.5 µg/mL |  |  | ≥ 90% |  | > 50 µg/mL |  |  |  | 
16 | CCN(CC)Cc1cc(-c2ccccc2F)n2c1cnc1ccccc12 |  |  |  | ≥ 90% |  | > 50 µg/mL |  |  |  | 
17 | CCCCNCc1cc(-c2ccccc2F)n2c1cnc1cc(Cl)ccc12 | 20 µg/mL (≈ 52.3 µM) | 74.5% | 33.3% | ≥ 90% | 73.7% | 10 µg/mL (≈ 26.2 µM) | 75.9% |  |  | 
18 | CCCNCc1cc(-c2ccccc2F)n2c1cnc1cc(Cl)ccc12 | 17.5 µg/mL (≈ 47.6 µM) | 74.5% | 24.8% | ≥ 90% | 73.7% | 10 µg/mL (≈ 27.2 µM) | 77% |  |  | 
19 | CC(C)NCc1cc(-c2ccccc2F)n2c1cnc1ccccc12 | 70.5 µg/mL (≈ 212 µM) |  | 17.3% | ≥ 90% |  | 10 to 50 µg/mL (≈ 30 to 150 µM) |  |  |  | 
20 | CCCCNCc1cc(-c2ccccc2F)n2c1cnc1ccccc12 | 120 µg/mL (≈ 346 µM) |  | 14.4% | ≥ 90% |  | 10 to 50 µg/mL (≈ 28.8 to 144 µM) |  |  |  | 
21 | Fc1ccccc1-c1cc(CNCCc2ccc(Br)cc2)c2cnc3ccccc3n12 | < 2.5 µg/mL | 76.1% | 17.3% | ≥ 90% | 72.3% | 5 µg/mL (≈ 10.5 µM) | 69.3% |  |  | 
22 | Fc1ccccc1-c1cc(CNCc2ccccc2)c2cnc3cc(Cl)ccc3n12 | < 2.5 µg/mL | 27.8% | 37% | ≥ 90% | 43.7% | 5 µg/mL (≈ 12 µM) | 19.4% |  |  | 
23 | Fc1ccccc1-c1cc(CN2CCOCC2)c2cnc3cc(Cl)ccc3n12 | < 2.5 µg/mL |  |  | ≥ 90% |  | > 50 µg/mL |  |  |  | 

Source: ChEMBL document CHEMBL4118162, “Discovery of novel anti-tuberculosis agents with pyrrolo[1,2-a]quinoxaline-based scaffold” (Bioorg Med Chem Lett, 2018)
